Measurements published in patent publication US20030211605A1, “Derivation of midbrain dopaminergic neurons from embryonic stem cells” (priority 2003, published 2003).

Assays:
Assay type in all cases: cell-based, mouse
ES-derived neuron = test: Patch clamp recording of synaptic activity of differentiated ES-derived neurons; details: 10 mM, pressure application; 13 days of differentiation; FIG. 9B/9C
ES cells [1] = test: Comparison of N2 and N3FL media: total, TUJ1+ and TH+ cells after differentiation; details: for phenotype of the ES cell derived population: variation of concentration in the medium
ES cells [2] = test: Yield of TH+ neurons (TH/TUJ1 immunocytochemistry) in differentiated ES cell cultures; details: SHH 500 ng/ml, FGF8 100 ng/ml, cAMP 1 mM, ascorbic acid 200 μM, added at different stages; FIG. 4
Method: Specifically, the cells were dissociated by adding a solution of 0.05% typsin and 0.04% EDTA to the plates and incubating at 37° C. for 5 minutes. The dissociated cells were plated on tissue culture plastic or glass coverslips at a concentration of 1.5-2×10^6 cm^2 in serum free N2 medium supplemented with 1 μg/ml of laminin and 10 ng/ml of basic fibroblast growth factor (bFGF, R&D Systems, Minneapolis, Minn.). The medium was also supplemented with murine aminoterminal fragment SHH (500 ng/ml); murine FGF8 isoform b (100 ng/ml, both from R& D System); and ascorbic acid (200 μM, Sigma). Control cultures were treated identically except that no SHH or FGF8 was applied during cell proliferation.
Differentiation (stage 5) was induced using a modification of Okabe et al., using N2 medium instead of N3FL medium. […]
Uniform random sampling procedure were used for cell counts and quantified using the fractionator technique (Gundersen et al., (1988) “Some new, simple and efficient stereological methods and their use in pathological research and diagnosis,” APIMS 96:379-394). […] Data expressed as mean±SEM.
Yield of TH+ neurons is expressed as a percentage of all TUJ1+ neurons.

Compound	response to application to the dendrites of a differentiated neuron (ES-derived neuron)	phenotype of the ES cell derived population (ES cells [1])	further results
NCCCC(=O)O [GABA, gamma amino butyric acid]	inward current		
O=S(=O)(O)CCN1CCN(CCO)CC1 [HEPES, 4-(2-hydroxyethyl)-1-piperazine-ethanesulfonic acid]			percentage of TUJ1 and TH+ cells (ES cells [1]; substitution of bicarbonate (N2) by HEPES (N3FL), FIG. 8): dramatically reduced
O=C1O[C@H]([C@@H](O)CO)C(O)=C1O [ascorbic acid]			yield of TH+ neurons (percentage of all TUJ1+ neurons) (ES cells [2]): increase the yield of TH+ neurons
N[C@@H](CCC(=O)O)C(=O)O [glutamate]	inward current		
NC(=O)CC[C@H](N)C(=O)O [glutamine]		did not significantly affect	
transferrin		did not significantly affect	
